# Experimental data as given in patent US11820975B2, “Human blood brain barrier model” (National Research Council of Canada, priority 2014, dated 2023).
# How the values were obtained:
# AF-iPSC-BECs [1] = assay type: in vitro ADME, human; details: AF-iPSC-BECs vs. HBMECs (Cell Systems), FIG. 6C
# AF-iPSC-derived neurons = assay type: cell-based, human
# AF-iPSC-BECs [2] = assay type: cell-based, human; details: BBB model cultured with the agent; ACMx2 for 24 hours; FIG. 7A-B
smiles,measurement,setting,value
O=C([O-])c1ccccc1-c1c2ccc(=O)cc-2oc2cc([O-])ccc12.[Na+].[Na+] [Sodium fluorescein],Sodium fluorescein permeability of AF-iPSC-BECs compared with HBMECs,AF-iPSC-BECs [1],significantly lower
"NC1=N[C@H](O)[C@H]2[C@H]3O[C@]4(O)O[C@@H]([C@@H](O)[C@@]2(N1)[C@@H]4O)[C@]3(O)CO [TTX, tetrodotoxin]",Effect on spiking activity,AF-iPSC-derived neurons,eliminated spiking activity
C[C@]12CCC(=O)C=C1CC[C@@H]1[C@@H]2[C@@H](O)C[C@@]2(C)[C@H]1CC[C@]2(O)C(=O)CO [hydrocortisone],Change in TEER value,AF-iPSC-BECs [2],significant increase
